The results in this text go back to PMC6992764 (Nature Communications, 2020).

One data set concerns B16 melanoma. Kind of data set: B16 lung metastasis model. It counts as in vivo, C57BL/6 mice. The protocol: For evaluating subcutaneous tumor growth, LLC or B16 cells (5 × 10^5) in 50 μl PBS were inoculated subcutaneously into the right flanks of mice. Mice were euthanized when their tumor volumes reached 4000 mm^3. Tumor sizes were measured twice a week using calipers. Tumor volume was calculated using the following formula: Volume = (width)^2 × length/2. For the lung metastasis model, 1 × 10^6 LLC or B16 cells in 200 μl PBS were injected intravenously into mice. Mice were euthanized at day 10 after tumor injection for the LLC model and day 5–9 for the B16 model, and the lungs were isolated after perfusion with PBS via the left ventricle. Visible lung metastases were counted in the left lobe. The diameters of metastatic nodules in the lung lobe image were measured using ImageJ software. […] Anti-PD-1 antibody (clone J43, BioXcell) was injected intraperitoneally at a dose of 200 μg per mouse on day 5, 8, 14, and 18 after tumor inoculation. Mice were anesthetized and perfused with PBS and the left lungs were isolated. […] Fluorescence images derived from B16-DsRed cells and stained antibodies were obtained using an SP5 confocal microscope (Leica Microsystems). The F4/80 + macrophage number accumulated in and around the tumor nodule visualized by fluorescent protein was counted per nodule of similar sizes among the control and FROUNT-cKO, vehicle, or DSF-treated groups.

In data set [1] the test system is LLC tumor cells co-cultured with monocytes. Kind of data set: Tumor cell co-culture with monocytes/macrophages. It counts as cell-based, mice. As to conditions: nano-molar concentrations of DSF. The protocol:
Monocytes were enriched from bone marrow cells by MACS negative selection for CD3, B220, Ly-6G, NK1.1, Ter119, CD49b, and c-kit. The percentage of Ly-6C^hi Ly-6G^− monocytes were >80%. Monocytes (1 × 10^5) and 100 DsRed^+ LLC tumor cells were co-cultured for 24 h. Proliferating tumor cell clusters containing more than 10 cells were enumerated by fluorescent microscopy. For flow cytometry analysis, cultured cells were harvested with trypsin-EDTA after 3 days of culture. Cells were stained with CD45-FITC (clone 102, BioLegend), then stained with annexin V-APC in binding buffer (BD biosciences). For detection of DNA synthesis, 5-ethynyl-2´-deoxyuridine (EdU) was added to the culture in the final hour of incubation. Intracellular EdU was stained using Click-iT® EdU Alexa Fluor™ 647 flow cytometry assay kits (Thermo Fisher Scientific) according to manufacturer’s instructions. Flow cytometry data were obtained by gating CD45(−) DsRed(+) cells and analyzing annexin V-positive cells or EdU-positive cells. Dead cells were excluded by Zombie Aqua staining (BioLegend). Stained cells were measured using Flow-Count™ Fluorospheres (Beckman Coulter) for the determination of absolute counts.

The subject of data set [2] is THP-1 cells. Kind of data set: Chemotaxis inhibition assay (chemoTX chamber, CCL2). As to conditions: towards CCL2, 90 min. The class given is cell-based, human. The protocol: Chemotaxis was measured in a 96-well chemoTX chemotaxis chamber with a polycarbonate filter (5-μm pore size) (Neuro probe). Human CCL2 (R&D Systems) was added to the lower chamber of the plate and the cells were added to the upper chamber. After incubation at 37 °C and 5% CO2 for 90 min, the filter was removed and the number of migrated cells in the lower chamber was counted using a cell counting kit F (Dojindo). Data are expressed as migration efficiency (percentage of the maximal migration).

Data set [3] has as its system THP-1 cells. As to the kind of experiment: Cell viability alongside chemotaxis assay. The class given is cell-based, human. As to conditions: at the concentrations tested in chemotaxis.
The target of data set [4] is T1, Full-length FROUNT protein (Homo sapiens, UniProt Q9BW27).
T1 construct: made in house
T1 sequence (Q9BW27 1-656): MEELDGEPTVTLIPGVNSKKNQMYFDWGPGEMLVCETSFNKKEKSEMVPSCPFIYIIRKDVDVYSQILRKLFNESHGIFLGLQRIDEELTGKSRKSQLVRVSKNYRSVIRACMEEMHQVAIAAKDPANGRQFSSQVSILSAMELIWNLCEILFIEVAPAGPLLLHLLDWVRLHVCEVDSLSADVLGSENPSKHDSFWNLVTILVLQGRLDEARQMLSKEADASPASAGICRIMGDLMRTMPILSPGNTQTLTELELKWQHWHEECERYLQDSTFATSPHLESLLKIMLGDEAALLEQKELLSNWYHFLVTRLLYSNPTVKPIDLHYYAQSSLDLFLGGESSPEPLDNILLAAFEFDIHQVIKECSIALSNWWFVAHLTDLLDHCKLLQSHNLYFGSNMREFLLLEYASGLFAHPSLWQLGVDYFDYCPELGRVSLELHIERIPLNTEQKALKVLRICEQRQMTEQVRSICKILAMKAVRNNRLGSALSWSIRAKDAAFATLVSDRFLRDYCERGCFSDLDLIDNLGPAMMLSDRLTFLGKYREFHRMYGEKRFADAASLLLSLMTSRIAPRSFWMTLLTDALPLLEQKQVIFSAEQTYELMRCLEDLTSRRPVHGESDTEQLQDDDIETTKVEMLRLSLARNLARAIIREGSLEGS
As to the kind of experiment: Surface plasmon resonance binding to FROUNT. The settings on record: SPR, concentration-dependent. The protocol: Interactions between FROUNT and library compounds were analyzed by surface plasmon resonance using a Biacore T100 (GE Healthcare). Full-length FROUNT protein or the FROUNT-binding region of CCR2 was immobilized on the CM5 sensor chip[56]. […] The resonance unit (RU) was measured during the binding and washing periods, and the binding kinetics were analyzed. Solvent correction with DMSO was performed using Biacore T100 evaluation software.
(Surface plasmon resonance follows binding to a sensor surface in real time, without labels.)

The subject of the next data set is B16 tumor cells. As to the kind of experiment: B16 tumor cell growth (WST-1 assay). The class given is cell-based. As to conditions: B16, 48 h. (Tetrazolium dyes change colour on reduction, which living cells bring about.)
Data set [5] relates to Lewis lung carcinoma (LLC). As to the kind of experiment: LLC lung metastasis model. The class given is in vivo, C57BL/6 mice. The settings on record: LLC i.v.; DSF 40 mg kg-1 i.p. daily. The protocol:
For evaluating subcutaneous tumor growth, LLC or B16 cells (5 × 10^5) in 50 μl PBS were inoculated subcutaneously into the right flanks of mice. Mice were euthanized when their tumor volumes reached 4000 mm^3. Tumor sizes were measured twice a week using calipers. Tumor volume was calculated using the following formula: Volume = (width)^2 × length/2. For the lung metastasis model, 1 × 10^6 LLC or B16 cells in 200 μl PBS were injected intravenously into mice. Mice were euthanized at day 10 after tumor injection for the LLC model and day 5–9 for the B16 model, and the lungs were isolated after perfusion with PBS via the left ventricle. Visible lung metastases were counted in the left lobe. The diameters of metastatic nodules in the lung lobe image were measured using ImageJ software. […] Anti-PD-1 antibody (clone J43, BioXcell) was injected intraperitoneally at a dose of 200 μg per mouse on day 5, 8, 14, and 18 after tumor inoculation.

Protocol for B16 tumor cells: To evaluate the effects of compounds on cell growth, cells were incubated with inhibitors for 48 h, then WST-1 (Dojindo) was added to the culture for the final 30 min. An Envision instrument (PerkinElmer) was used to measure the absorbance of each well at 450 nm versus a 650-nm reference to detect the amount of formazan produced from WST-1 by mitochondrial dehydrogenases in viable cells.

Take `CCN(CC)C(=S)SSC(=S)N(CC)CC` [DSF, disulfiram]: the “lung metastatic nodule formation” value in the data set with B16 melanoma (B16 i.v., DSF 40 mg kg-1 i.p. daily) is on record as “significantly reduced”; in data set [5], “significantly reduced”. Moreover, the “macrophage accumulation around tumor metastatic nodules” value with B16 melanoma (day 12 after B16 tumor cell injection, F4/80) was “diminished”. Besides, the “tumor cell growth induced by co-culture with monocytes” value in data set [1] was “inhibited”. In addition, the cellular chemotaxis result with THP-1 cells [2] is “inhibited”. For the same molecule, the “cytotoxicity (cell viability)” value in the data set on THP-1 cells [3] is “without any cytotoxicity”. The “binding to FROUNT protein” value in data set [4] is reported as “directly binds”. For the same molecule, the in vitro growth result with B16 tumor cells is on record as “no effect”.
